pIC50: −log10 of the molar value. Marks after values point to notes of the source that are not given here.
Legend:
Rat liver hepatocytes = assay: MTT cytotoxicity on hepatocytes; assay type: cell-based; settings: 24 hours
Procedure: (§1) The cytotoxic properties of the compounds were determined in vitro using the MTT method in 96-well plates (Costar, USA). […] Rat liver hepatocytes were obtained according to the method, human blood mononuclear cells - according to [23]. Fibroblast cells were obtained according to the method of [24] with some modifications. Cell cultures were subcultured into 96-well plates according to the method of [21] by adding 100 μl of nutrient medium. The CCRF-CEM suspension culture was poured into a tube, centrifuged at 800 rpm for 10 minutes, and the supernatant was discarded. […] Data obtained in 3 independent experiments were expressed as the mean value for each concentration ± standard error of the mean, relative to the control values (cells without test compounds). The cytotoxic effect of each of the studied compounds was compared with the effect of the cytostatic Cisplatin-Naprod (India), containing cisplatin as an active component. Table 1: IC50 μM value for test compounds

[1] = tested on: CCRF-CEM (CCL-119) (T-lymphoblastic leukemia); assay: MTT cytotoxicity on CCRF-CEM cells; assay type: cell-based; settings: 24 hours
Procedure: as §1

fibroblasts = assay: MTT cytotoxicity on fibroblasts; assay type: cell-based; settings: 24 hours
Procedure: as §1

[2] = tested on: blood of conditionally healthy individuals; assay: Hemogram of blood of conditionally healthy individuals after exposure to the drugs; settings: 10 µg/ml, 3 hours, 37.0°C
Procedure: (§3) 5 ml of venous blood from sick and conditionally healthy individuals were collected into Vacutainer tubes with the addition of EDTA (Himedia, India).
(§4) The resulting blood was divided into aliquots of 1 ml and 10 µl (10 µg/ml) of the studied drugs (cytosar, doxorubicin, F1 and F2) were added to each tube.

[3] = tested on: blood of patients with AML; assay: Hemogram of blood of patients with AML after exposure (Example 13, Table 10; also OMML); assay type: cell-based; settings: AML (Table 10); 10 µg/ml; 3 hours, 37.0°C
Procedure: (§5) The drugs Cytosar (Alexan) (Ebewe Pharma, Austria) and doxorubicin (Naprod, Mumbai, India) recommended by WHO for the treatment of the above oncohematological diseases were used as comparison drugs.
as §3, §4

[4] = tested on: blood of patients with B-ALL; assay: Hemogram of blood of patients with B-ALL after exposure; assay type: cell-based; settings: 10 µg/ml, 3 hours, 37.0°C
Procedure: A total of 798 blood samples from patients with leukemia were examined.
as §5, §3, §4

[5] = tested on: blood of patients with AML; assay: Hemogram of blood of patients with AML after exposure (Example 14, Table 11); assay type: cell-based; settings: AML (Table 11); 10 µg/ml; 3 hours, 37.0°C
Excerpt: (§6) The effect of compounds F1 and F2 was studied on biological material (blood) of patients with hematological malignancies (leukemia), as well as for individual nosologies, in particular, patients with leukemia (combined group) (n=224), T-ALL (n=84), B-ALL (n=100), ALL (n=100), AML (n= 98), AML (n=94) and AML (n= 98) were studied. A total of 798 blood samples from patients with leukemia were examined.
as §5, §3, §4

[6] = tested on: blood of patients with ALL; assay: Hemogram of blood of patients with ALL after exposure; assay type: cell-based; settings: 10 µg/ml, 3 hours, 37.0°C
Procedure: as §6, §3, §4

[7] = tested on: blood of patients with AML; assay: Hemogram of blood of patients with AML after exposure (Example 12, Table 9); assay type: cell-based; settings: AML (Table 9); 10 µg/ml; 3 hours, 37.0°C
Procedure: as §5, §3, §4

[8] = tested on: blood of patients with leukemia (combined group); assay: Hemogram of blood of patients with leukemia (combined group) after exposure; assay type: cell-based; settings: 10 µg/ml, 3 hours, 37.0°C
Excerpt: as §6, §5, §3, §4

[9] = tested on: blood of patients with T-ALL; assay: Hemogram of blood of patients with T-ALL after exposure; assay type: cell-based; settings: 10 µg/ml, 3 hours, 37.0°C
Excerpt: as §6, §5, §3, §4

[10] = Acute toxicity study (LD50); settings: both, outbred white, mouse, in vivo, ip
Procedure: (§2) We studied the acute toxicity of compound F1 in vivo. The experiments were carried out on outbred white mice of both sexes weighing 18-20 g (24 pcs.). The animals were divided into groups of 12 mice each. The compound was dissolved in DMSO and then adjusted to the desired concentration with 0.9% NaCl solution and administered intraperitoneally and subcutaneously in a dose range from 5.0 to 200.0 mg/kg. […] The maximum relative error of the applied dose was no more than 5%.
as §2, with “F2” for “F1”, “brought” for “adjusted”, “subcutaneously to animals” for “subcutaneously”, “administered” for “applied”

## N.N.[Cl][Pt][Cl] [Cisplatin, cisplatin, reference compound]
Rat liver hepatocytes
  pIC50: 4.54
[1]
  pIC50: 4.91
fibroblasts
  pIC50: 4.53

## Nc1ccn([C@@H]2O[C@H](CO)[C@@H](O)[C@@H]2O)c(=O)n1 [Cytosar, cytarabine, reference compound]
[2]
  Band (s/n) neutrophils: 1,8±0,2 %
  Blasts: 0,0±0,0%
  Destroyed cells: 0,0±0,0%
  Eosinophils: 2,1±0,4%
  Lymphocytes: 28,0±1,2%
  Monocytes: 6,6±0,4 %
  Myelocytes: 0,0±0,0%
  Promyelocytes: 0,0±0,0%
  Segmented (s/i) neutrophils: 61,5±1,2%
[3]
  Band (s/n) neutrophils: 3,6±0,5%
  Blasts: 50,2±2,8%
  Destroyed cells: 7,8±0,6 %
  Eosinophils: 0,6±0,3%
  Lymphocytes: 6,6±0,7%
  Monocytes: 1,2±0,2 %
  Myelocytes: 16,0±1,4 %
  Promyelocytes: 0,0±0,0%
  Segmented (s/i) neutrophils: 14,1±1,2 %
[4]
  Band (s/n) neutrophils: 0,6±0,3%
  Blasts: 63,5±3,4 %
  Destroyed cells: 8,9±2,2 %
  Eosinophils: 0,1±0,1%
  Lymphocytes: 17,2±2,0%
  Monocytes: 4,6±1,2%
  Myelocytes: 0,7±0,4%
  Promyelocytes: 0,0±0,0%
  Segmented (s/i) neutrophils: 6,1±0,9%
[5]
  Band (s/n) neutrophils: 3,5±1,0 %
  Blasts: 59,5±3,7 %
  Destroyed cells: 12,4±1,7 %
  Eosinophils: 4,0±0,2%
  Lymphocytes: 8,4 ±0,9%
  Monocytes: 4,9±1,2 %
  Myelocytes: 1,8±0,4%
  Promyelocytes: 0,0±0,0%
  Segmented (s/i) neutrophils: 9,2±2,3%
[6]
  Band (s/n) neutrophils: 0,4±0,2%
  Blasts: 78,7±1,4 %
  Destroyed cells: 4,8±1,4 %
  Eosinophils: 0,0±0,0%
  Lymphocytes: 11,4±0,8%
  Monocytes: 2,2±0,4%
  Myelocytes: 0,2±0,1%
  Promyelocytes: 0,0±0,0%
  Segmented (s/i) neutrophils: 2,4±0,6%
[7]
  Band (s/n) neutrophils: 1,2±0,5%
  Blasts: 65,4±3,9 %
  Destroyed cells: 6,3±1,7 %
  Eosinophils: 1,0±0,9%
  Lymphocytes: 12,5±1,7%
  Monocytes: 3,4±0,8%
  Myelocytes: 1,4±0,6%
  Promyelocytes: 0,9±0,6%
  Segmented (s/i) neutrophils: 5,6±1,2%
[8]
  Band (s/n) neutrophils: 1,1±0,4 %
  Blasts: 65,9±2,8 %
  Destroyed cells: 9,0±1,6 %
  Eosinophils: 0,4±0,3%
  Lymphocytes: 13,7±1,6%
  Monocytes: 3,5±0,6 %
  Myelocytes: 1,1±0,3 %
  Promyelocytes: 0,2±0,1%
  Segmented (s/i) neutrophils: 6,7±1,1%
[9]
  Band (s/n) neutrophils: 1,0±0,1%
  Blasts: 73,5±2,0 %
  Destroyed cells: 8,8±1,0 %
  Eosinophils: 0,0±0,0%
  Lymphocytes: 11,5±1,0 %
  Monocytes: 2,3±0,4%
  Myelocytes: 0,0±0,0%
  Promyelocytes: 0,0±0,000%
  Segmented (s/i) neutrophils: 3,0±0,4 %

## COc1cccc2c1C(=O)c1c(O)c3c(c(O)c1C2=O)C[C@@](O)(C(=O)CO)C[C@@H]3O[C@H]1C[C@H](N)[C@H](O)[C@H](C)O1 [Doxorubicin, doxorubicin, reference compound]
[2]
  Band (s/n) neutrophils: 1,5±0,2%
  Blasts: 0,0±0,0%
  Destroyed cells: 0,0±0,0%
  Eosinophils: 1,7±0,2%
  Lymphocytes: 28,1±0,9%
  Monocytes: 6,1±0,4%
  Myelocytes: 0,0±0,0%
  Promyelocytes: 0,0±0,0%
  Segmented (s/i) neutrophils: 62,6±1,0%
[3]
  Band (s/n) neutrophils: 3,4±0,5%
  Blasts: 58,4±1,9%
  Destroyed cells: 15,1±1,1 %
  Eosinophils: 0,7±0,3%
  Lymphocytes: 6,1±0,7%
  Monocytes: 1.6±0,3 %
  Myelocytes: 4,0±0,4 %
  Promyelocytes: 0,0±0,0%
  Segmented (s/i) neutrophils: 10,8±1,0%
[4]
  Band (s/n) neutrophils: 0,7±0,2%
  Blasts: 64,3±3,7%
  Destroyed cells: 13,0±2,8 %
  Eosinophils: 0,1±0,1%
  Lymphocytes: 15,0±2,9%
  Monocytes: 1.6±0,5%
  Myelocytes: 0,6±0,3%
  Promyelocytes: 0,0±0,0%
  Segmented (s/i) neutrophils: 4,9±0,9%
[5]
  Band (s/n) neutrophils: 0,8±0,2%
  Blasts: 45,4±1,9 %
  Destroyed cells: 24,0±4,0 %
  Eosinophils: 0,0±0,0%
  Lymphocytes: 9,7±1,5%
  Monocytes: 11.2±2,3 %
  Myelocytes: 0,0±0,0%
  Promyelocytes: 0,0±0,0%
  Segmented (s/i) neutrophils: 9,1±1,5%
[6]
  Band (s/n) neutrophils: 0,3±0,1%
  Blasts: 76,4±1,7 %
  Destroyed cells: 9,0±1,1*^ %
  Eosinophils: 0,2±0,1%
  Lymphocytes: 9,9±1,3%
  Monocytes: 1.9±0,6%
  Myelocytes: 0,2±0,1%
  Promyelocytes: 0,0±0,0%
  Segmented (s/i) neutrophils: 2,2±0,3%
[7]
  Band (s/n) neutrophils: 0,5±0,4%
  Blasts: 68,4±3,6 %
  Destroyed cells: 5,6±1,4 %
  Eosinophils: 0,8±0,7%
  Lymphocytes: 13,2±2,4%
  Monocytes: 5.2±1,5%
  Myelocytes: 0,9±0,8%
  Promyelocytes: 0,0±0,0%
  Segmented (s/i) neutrophils: 5,5±1,2%
[8]
  Band (s/n) neutrophils: 1,8±0,5%
  Blasts: 65,6±2,6 %
  Destroyed cells: 11,4±2,2 %
  Eosinophils: 3,8±2,4%
  Lymphocytes: 15,0±1,8%
  Monocytes: 5,3±1,2%
  Myelocytes: 3,3±1,2%
  Promyelocytes: 0,0±0,000%
  Segmented (s/i) neutrophils: 5,8±0,7%
[9]
  Band (s/n) neutrophils: 1,2±0,1 %
  Blasts: 67,2±0,9 %
  Destroyed cells: 13,4±0,5 %
  Eosinophils: 0,0±0,0%
  Lymphocytes: 9,8±0,1 %
  Monocytes: 1.7±0,2%
  Myelocytes: 0,0±0,0%
  Promyelocytes: 0,0±0,0%
  Segmented (s/i) neutrophils: 6,7±0,4%
[10]
  LD50 at 1 week: 10.8 mg/kg

— patent EP4506003A1, “HALOGEN DERIVATIVES OF (4´,5´- METHYLENEDIOXYPHENYL)-6,7-DIMETHOXY-1,2,3,4-TETRAHYDROISOQUINOLINE FOR USE IN THE TREATMENT OF LEUKEMIA” (S.Yu Yunusov Institute of Chemistry of Plant Substances of …, priority 2023, dated 2025)
